{"source": "patent US12433899B2", "about": "“Therapeutics and method for treating osteoarthritis” (Calosyn Pharma Inc., priority 2021, dated 2025)", "test_system": "medial meniscal tear-induced cartilage degeneration", "test": "Rat medial meniscal tear model, knee histopathology after intra-articular dosing", "type": "in vivo, Male Lewis rats", "settings": "IA 3 μg (each) Q4D days 4, 8, 12, 16, 20, 24; vs Q4D vehicle controls", "experimental": "This model is performed by transection of the medial collateral ligament just below its attachment to the meniscus so that when the joint space opens, the meniscus is reflected toward the femur. The meniscus is cut at its narrowest point (away from the ossicles) taking care not to damage the tibial surface and making sure that the resulting transection produces separate, freely movable anterior and posterior meniscus halves.\nExperimental Design: Animals were anesthetized with Isoflurane and the right knee area was prepared for surgery. A skin incision was made over the medial aspect of the knee and the medial collateral ligament was exposed by blunt dissection, and then transected. The medial meniscus was cut through the full thickness to simulate a complete tear. Skin and subcutis were closed with 4-0 Vicryl suture. Dosing by the intra-articular (IA) route began four days after surgery and continued as indicated below until day 24. Treatment groups were as follows: […]\nAll three sections of each knee were analyzed microscopically. In scoring the three sections, the worst-case scenario for the two halves on each slide was determined for general cartilage degeneration, proteoglycan loss, collagen damage, and osteophyte formation. […] When zones are scored individually, scores are assigned based on % area of the zone affected. […]"}
{"compound": "COc1ccc([C@@H]2Sc3ccccc3N(CCN(C)C)C(=O)[C@@H]2OC(C)=O)cc1", "note": "[Diltiazem, 5-[2-(dimethylamino)ethyl]-2-(4-methoxyphenyl)-4-oxo-2,3,4,5-tetrahydro-1,5-benzothiazepin-3-yl acetate]", "values": [{"measurement": "decrease in the total joint score", "result": 6, "unit": "%"}]}
